Reference: PubChem BioAssay AID1845198 (Molecular Pharmacology Branch, DTP, NCI, 2023)

Test system: 425362-245-T-J1 tumor spheroids, viability % test/control
Assay: Anticancer human tumor 425362-245-T-J1 patient-derived melanoma cell line growth inhibition
Conditions: spheroids with HUVEC and MSC; for IC50: curve of first compound; for viability, T/C: stronger effect = lower value
Summary of the method: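 Single agents and combinations were tested on spheroids built from tumor cells plus HUVEC and hMSC, at half-log dilutions starting at or near clinical Cmax, else 10 microM; final DMSO 0.25% (v/v).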

[1] = second compound 30 pM, first compound 0.0316 µM
[2] = second compound 30 pM, first compound 0.1 µM
[3] = second compound 30 pM, first compound 0.316 µM
[4] = second compound 30 pM, first compound 1 µM
[5] = second compound 30 pM, first compound 3.16 µM
[6] = second compound 30 pM, first compound 10 µM
[7] = second compound 94.9 pM, first compound 0.0316 µM
[8] = second compound 94.9 pM, first compound 0.1 µM
[9] = second compound 94.9 pM, first compound 0.316 µM
[10] = second compound 94.9 pM, first compound 1 µM
[11] = second compound 94.9 pM, first compound 3.16 µM
[12] = second compound 94.9 pM, first compound 10 µM
[13] = second compound 0.0003 µM, first compound 0.0316 µM
[14] = second compound 0.0003 µM, first compound 0.1 µM
[15] = second compound 0.0003 µM, first compound 0.316 µM
[16] = second compound 0.0003 µM, first compound 1 µM
[17] = second compound 0.0003 µM, first compound 3.16 µM
[18] = second compound 0.0003 µM, first compound 10 µM
[19] = second compound 0.000949 µM, first compound 0.0316 µM
[20] = second compound 0.000949 µM, first compound 0.1 µM
[21] = second compound 0.000949 µM, first compound 0.316 µM
[22] = second compound 0.000949 µM, first compound 1 µM
[23] = second compound 0.000949 µM, first compound 3.16 µM
[24] = second compound 0.000949 µM, first compound 10 µM
[25] = second compound 0.003 µM, first compound 0.0316 µM
[26] = second compound 0.003 µM, first compound 0.1 µM
[27] = second compound 0.003 µM, first compound 0.316 µM
[28] = second compound 0.003 µM, first compound 1 µM
[29] = second compound 0.003 µM, first compound 3.16 µM
[30] = second compound 0.003 µM, first compound 10 µM
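Note: spheroids exposed to agents for 7 days.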
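Throughout, for viability, T/C: 100% = DMSO vehicle control viability.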

| Compound | IC50 (second compound 30 pM) [nM] | IC50 (second compound 94.9 pM) [nM] | IC50 (second compound 0.0003 µM) [nM] | IC50 (second compound 0.000949 µM) [nM] | IC50 (second compound 0.003 µM) [nM] | viability, T/C [1] [%] | viability, T/C [2] [%] | viability, T/C [3] [%] | viability, T/C [4] [%] | viability, T/C [5] [%] | viability, T/C [6] [%] | viability, T/C [7] [%] | viability, T/C [8] [%] | viability, T/C [9] [%] | viability, T/C [10] [%] | viability, T/C [11] [%] | viability, T/C [12] [%] | viability, T/C [13] [%] | viability, T/C [14] [%] | viability, T/C [15] [%] | other results |
| --- | --- | --- | --- | --- | --- | --- | --- | --- | --- | --- | --- | --- | --- | --- | --- | --- | --- | --- | --- | --- | --- |
| CC(C)n1c(=O)n(C)c2cnc3cc(F)c(-c4ccc(OCCCN5CCCCC5)nc4)cc3c21 + COc1cc2c(cc1O)CCNC21CSC2c3c(OC(C)=O)c(C)c4c(c3C(COC1=O)N1C(O)C3Cc5cc(C)c(OC)c(O)c5C(C21)N3C)OCO4 | < 31.6 | < 31.6 | < 31.6 | < 31.6 | < 31.6 | 14.8 | 30.2 | 13.3 | 14.8 | 11.2 | 5.34 | 12 | 9.68 | 5.43 | 6.03 | 6.79 | 4.33 | 3.13 | 2.75 | 1.61 | viability, T/C [16]: 1.81%; viability, T/C [17]: 1.68%; viability, T/C [18]: 1.23%; viability, T/C [19]: 0.2%; viability, T/C [20]: 0.2%; viability, T/C [21]: 0.19%; viability, T/C [22]: 0.63%; viability, T/C [23]: 0.35%; viability, T/C [24]: 0.15%; viability, T/C [25]: 0.18%; viability, T/C [26]: 0.19%; viability, T/C [27]: 0.17%; viability, T/C [28]: 0.12%; viability, T/C [29]: 0.12%; viability, T/C [30]: 0.23% |
| CC1COCCN1c1cc(-c2ccnn2C)c2ccnc(-c3ccn[nH]3)c2n1 (stereo not given) + COc1cc2c(cc1O)CCNC21CSC2c3c(OC(C)=O)c(C)c4c(c3C(COC1=O)N1C(O)C3Cc5cc(C)c(OC)c(O)c5C(C21)N3C)OCO4 | < 31.6 | < 31.6 | < 31.6 | < 31.6 | < 31.6 | 31.8 | 7.92 | 5.31 | 5.63 | 6.73 | 7.04 | 17.9 | 5 | 4.08 | 3.64 | 5.29 | 5.35 | 2.05 | 1.46 | 1.47 | viability, T/C [16]: 1.57%; viability, T/C [17]: 2.68%; viability, T/C [18]: 2.88%; viability, T/C [19]: 0.27%; viability, T/C [20]: 0.17%; viability, T/C [21]: 0.15%; viability, T/C [22]: 0.08%; viability, T/C [23]: 0.09%; viability, T/C [24]: 0.58%; viability, T/C [25]: 0.58%; viability, T/C [26]: 0.6%; viability, T/C [27]: 0.55%; viability, T/C [28]: 0.47%; viability, T/C [29]: 0.47%; viability, T/C [30]: 0.86% |
| COc1ccc([C@@H](O)c2cc(-c3ncnc4cc(N5CCOCC5)ccc34)c(F)cc2Cl)nn1 + COc1cc2c(cc1O)CCNC21CSC2c3c(OC(C)=O)c(C)c4c(c3C(COC1=O)N1C(O)C3Cc5cc(C)c(OC)c(O)c5C(C21)N3C)OCO4 | 1490 | 889 | < 31.6 | < 31.6 | < 31.6 | 94.5 | 108 | 93.6 | 58.5 | 32.7 | 15.9 | 91 | 91.2 | 84.3 | 44.4 | 26.5 | 14.2 | 49.2 | 42.5 | 36.6 | viability, T/C [16]: 3.35%; viability, T/C [17]: 0.22%; viability, T/C [18]: 0.19%; viability, T/C [19]: 0.4%; viability, T/C [20]: 0.23%; viability, T/C [21]: 0.14%; viability, T/C [22]: 0.08%; viability, T/C [23]: 0.05%; viability, T/C [24]: 0.22%; viability, T/C [25]: 0.28%; viability, T/C [26]: 0.35%; viability, T/C [27]: 0.35%; viability, T/C [28]: 0.33%; viability, T/C [29]: 0.3%; viability, T/C [30]: 0.39% |
